The source of these data is patent US7598234B2, “Steroid derived antibiotics” (Brigham Young University, priority 1998, dated 2009).

The structures appear in SMILES notation. Values after ≈ are worked out from the molar mass of the structure shown. Where only a bound is given, the exact number is not on record here.

In one data set the test system is Gram-negative bacteria. Put plainly: Sensitization to erythromycin, ester and amide side chain compounds (Table 14). The data set is classed as cell-based. To be noted: in words; compared with Table 14 compounds. As to the method: (§1) Aliquots of 1 mL of the suspension were added to test tubes containing 1 mL TSB and incrementally varied concentrations of cholic acid derivatives and/or erythromycin or novobiocin. In the sensitization experiments, erythromycin or novobiocin were added 15 minutes later than the cholic acid derivatives. The samples were subjected to stationary incubation at 37° C. for 24 hours. Sample turbidity was determined by measuring absorption at 760 nm (HP 8453 UV-Visible Chemstation, Hewlett Packard). Additionally, an alliquot from each of the samples showing no measurable turbidity was subcultured on TSA plates (alliquots were diluted to provide fewer than 300 CFU). Colonies that grew on the subculture after overnight incubation were counted and the number of CFU/mL in the samples were calculated. The calculated values were compared to the number of CFU/mL in the original inoculum.
(§2) Ability to permeabilize outer membrane: Compounds 11, 106, and 108-114 (FIG. 1) were tested for antibiotic activity. They were also tested for the ability to permeabilize the outer membrane of Gram-negative bacteria, causing sensitization to hydrophobic antibiotics that cannot cross the outer membrane. The permeabilization of the outer membrane was measured using erythromycin and novobiocin.
Ester and amide side chains: Additional compounds, for example, compounds with amide and ester side chains, were tested.

The subject of data set [1] is Salmonella typhimurium ATCC 14028. Put plainly: MIC and MBC measurement with Salmonella typhimurium ATCC 14028. The data set is classed as cell-based. To be noted: Table 10.
Source text: (§3) General: Microorganisms. Reference strains were purchased from the American Type Culture Collection (Rockville, Md.) or Bactrol disks from Difeo Laboratories (Detroit, Mich.). The following specific ATCC strains were used: 10798 Escherichia coli, 25922 Escherichia coli, 13883 Klebsiella pneumoniae, 27853 Pseudomonas aeruginosa, 14028 Salmonella typhimurium, 29212 Enterococcus faecalis, 25923 Staphylococcus aureus, 19615 Streptococcus pyogenes, and 90028 Candida albicans. Bacterial strains were maintained on Mueller-Hinton agar plates, and Candida albicans was maintained on Sabouraud Dextrose agar plates.
(§4) Tryptic soy broth (TSB) was made by dissolving 27.5 grams of tryptic soy broth without dextrose (DIFCO Laboratories) in 1 liter of deionized water and sterilizing at 121° C. for 15 minutes. Solid agar (TSA) plates were made by dissolving 6.4 grams of tryptic soy broth and 12 grams of agar (purified grade, Fischer Scientific) in 800 mL of deionized water and sterilizing at 121° C. for 20 minutes. Aliquots (20 mL) of the homogeneous solution were then poured in sterile plastic petri dishes (100×15 mm, Fisher Scientific). Solutions of compounds were made by dissolving the HCl salt of the respective compound into an appropriate amount of deionized and sterilized water followed by microfiltration.
as §1

In data set [2] the test system is Enterococcus faecalis ATCC 29212. Put plainly: MIC and MBC measurement with Enterococcus faecalis ATCC 29212. The class given is cell-based. The note with it: Table 10.
Source text: as §3, §4, §1

In data set [3] the test system is E. coli (ATCC 25922). The data set can be described thus: Sensitization to erythromycin, E. coli (ATCC 25922). The class given is cell-based, Escherichia coli. As to the method:
FICs can be performed by checkerboard titrations of compounds in one dimension of a microtiter plate, and of antibiotics in the other dimension, for example. The FIC is calculated by looking at the impact of one antibiotic on the MIC of the other and vice versa. […] Preferably, an FIC of less than 0.5 is obtained for synergism. As used herein, FIC can be determined as follows:
as §1
Concentrations of 0.5, 1.0 or 3.0 μg/mL of these antibiotics were used, and the concentrations of the cholic acid derivatives required to inhibit bacterial growth of Gram-negative strains were determined.
(§5) Minimum inhibition concentrations (MIC) and minimum hemolytic concentrations (MHC) were measured as described in Li et al., Antimicrob. Agents. Chemother., 1999, 43, 1347.

Data set [4] deals with Candida albicans ATCC 90028. Put plainly: MIC and MBC measurement with Candida albicans ATCC 90028. The data set is classed as cell-based. The note with it: Table 10.
Source text: as §3, §4, §1

How the values of data set [5] were obtained:
as §5

The test system of data set [6] is E. coli (ATCC 25922). Put plainly: MIC and MBC measurement with E. coli (ATCC 25922). The class given is cell-based, Escherichia coli.
Source text: as §3, §4
as §1, with “inoculum. […]” for “inoculum.”

The subject of data set [7] is Pseudomonas aeruginosa (ATCC 27853). The data set can be described thus: MIC and MBC measurement with Pseudomonas aeruginosa (ATCC 27853). The class given is cell-based.
Source text: as §3, §4, §1

The test system of data set [8] is Streptococcus pyrogenes ATCC 19615. Put plainly: MIC and MBC measurement with Streptococcus pyogenes ATCC 19615. To be noted: Table 10. The class given is cell-based.
Source text: as §3, §4, §1

The subject of data set [9] is E. coli (ATCC 10798). Put plainly: MIC and MBC measurement with E. coli (ATCC 10798). The data set is classed as cell-based, Escherichia coli.
Source text: as §3, §4, §1

Data set [10] deals with Staphylococcus aureus ATCC 25923. Put plainly: MIC and MBC measurement with Staphylococcus aureus ATCC 25923. The class given is cell-based.
Source text: as §3, §4
as §1, with “inoculum. […]” for “inoculum.”

Data set [11] relates to Pseudomonas aeruginosa (ATCC 27853). Put plainly: Sensitization to erythromycin, Pseudomonas aeruginosa (ATCC 27853). The data set is classed as cell-based. On the procedure:
(§6) Alternatively, “fractional inhibitory concentration (FIC)” is also useful for determination of synergy between the compounds of the invention, or the compounds in combination with known antibiotics. FICs can be performed by checkerboard titrations of compounds in one dimension of a microtiter plate, and of antibiotics in the other dimension, for example. The FIC is calculated by looking at the impact of one antibiotic on the MIC of the other and vice versa. […] Preferably, an FIC of less than 0.5 is obtained for synergism. As used herein, FIC can be determined as follows:
as §1, with “inoculum. […]” for “inoculum.”
(§7) To measure permeabilization, the FIC values for compounds 1, 2, 5, 106, 10, 112, 133, and 134 with erythromycin, novobiocin, and rifampicin were determined. Concentrations of 0.5, 1.0 or 3.0 μg/mL of these antibiotics were used, and the concentrations of the cholic acid derivatives required to inhibit bacterial growth of Gram-negative strains were determined.

In data set [12] the test system is Klebsiella pneumonia ATCC 13883. The data set can be described thus: MIC and MBC measurement with Klebsiella pneumoniae ATCC 13883. The data set is classed as cell-based. The note with it: Table 10.
Source text: as §3, §4, §1

The test system of data set [13] is E. coli (ATCC 10798). The data set can be described thus: Sensitization to novobiocin (concentration lowering the MIC of novobiocin), E. coli (ATCC 10798). The class given is cell-based, Escherichia coli. To be noted: Table 3, E. coli (ATCC 10798). As to the method: as §6, §1, §2
(§8) The MICs of erythromycin and novobiocin against E. coli (ATCC 10798) at 70 and >500 μg/mL were measured.

Data set [14] relates to E. coli (ATCC 10798). The data set can be described thus: Sensitization to erythromycin (concentration lowering the MIC of erythromycin), E. coli (ATCC 10798). The class given is cell-based, Escherichia coli. To be noted: Table 2, E. coli (ATCC 10798). On the procedure:
as §6, §1, §2, §8

Data set [15] relates to Pseudomonas aeruginosa (ATCC 27853). Put plainly: Sensitization to novobiocin, Pseudomonas aeruginosa (ATCC 27853). The data set is classed as cell-based. The note with it: Table 8; P. aureginosa (ATCC 27853). On the procedure:
as §6
as §1, with “inoculum. […]” for “inoculum.”
as §7

The mark [16] stands for this setting: Table 10, Escherichia coli ATCC 25922.
Setting [17] is: Table 10, Pseudomonas aeruginosa ATCC 27853.
Setting [18] is: Table 10, Staphylococcus aureus ATCC 25923.
Where [19] appears, read: Table 6, P. aureginosa (ATCC 27853).

`C[C@H](CCCO)[C@H]1CC[C@H]2[C@@H]3[C@H](N)C[C@@H]4C[C@H](N)CC[C@]4(C)[C@H]3C[C@H](N)[C@]12C` [Compound 206]: the “activity as a permeabilizer” value with Gram-negative bacteria was “ineffective as a permeabilizer”.
In the case of `CCCCCCCCNCCC[C@@H](C)[C@H]1CC[C@H]2[C@@H]3[C@H](OCCCN)C[C@@H]4C[C@H](OCCCN)CC[C@]4(C)[C@H]3C[C@H](OCCCN)[C@]12C` [Compound 133], the MBC in data set [1] was determined as 6.7 µg/mL (≈ 9.89 µM); in data set [2] it was 5.5 µg/mL (≈ 8.12 µM); in data set [4], 45 µg/mL (≈ 66.5 µM); with E. coli (ATCC 25922) [6] (setting [16]) it was 3.0 µg/mL (≈ 4.43 µM); in data set [7] (setting [17]) it was 3.2 µg/mL (≈ 4.73 µM); in data set [8], 2.9 µg/mL (≈ 4.28 µM). In addition, the MBC in data set [10] (setting [18]) came out at 2.0 µg/mL (≈ 2.95 µM); in data set [12] it was 5.8 µg/mL (≈ 8.57 µM). Besides, the MIC – broadly, the smallest concentration in the dilution series that meets the test's criterion for growth inhibition – was found to be 2.6 µg/mL (≈ 3.84 µM) in data set [1]; 3.1 µg/mL (≈ 4.58 µM) in data set [2]; 31 µg/mL (≈ 45.8 µM) in data set [4]; 3.0 µg/mL (≈ 4.43 µM) in the data set with E. coli (ATCC 25922) [6] (setting [16]); 2.0 µg/mL (≈ 2.95 µM) in data set [7] (setting [17]); 2.3 µg/mL (≈ 3.4 µM) in data set [8]. Moreover, the MIC in [10] (setting [18]) amounted to 0.4 µg/mL (≈ 0.591 µM); in [12], 2.6 µg/mL (≈ 3.84 µM). The FIC with E. coli (ATCC 25922) [3] (Table 11, Escherichia coli ATCC 25922, erythromycin (by order)) came to 0.42; in [11] (Table 11, Pseudomonas aeruginosa ATCC 27853, erythromycin (by order)) it was 0.21. Besides, the “concentration required to inhibit bacterial growth with antibiotic” value in the data set with E. coli (ATCC 25922) [3] (Table 11, Escherichia coli ATCC 25922, erythromycin (by order) at 0.5, 1.0 or 3.0 μg/mL) was found to be 1.2 µg/mL; in data set [11] (Table 11, Pseudomonas aeruginosa ATCC 27853, erythromycin (by order) at 0.5, 1.0 or 3.0 μg/mL), 0.35 µg/mL. Moreover, the MHC in data set [5] stood at 29 µg/mL. The “MIC (in words)” value in the data set with E. coli (ATCC 10798) [9] (FIG. 5, strain not named) is listed as “very low”.
On to `C[C@H](CCC(=O)O)[C@H]1CC[C@H]2[C@@H]3[C@H](OC(=O)CN)C[C@@H]4C[C@H](OC(=O)CN)CC[C@]4(C)[C@H]3C[C@H](OC(=O)CN)[C@]12C` [Compound 327], for which the “c: concentration required to lower the MIC of erythromycin from 36 to 1 μg/mL” value in the data set with E. coli (ATCC 25922) [3] (Table 16, E. coli) was >100 µg/mL. Also, the “MHC (minimum hemolytic concentration)” value in [5] is >100 µg/mL. Further, the “MIC (MIC^b)” value in the data set with E. coli (ATCC 25922) [6] (Table 16, E. coli (ATTC 25922)) was >100 µg/mL. In data set [10] (Table 16, S. aureus (ATTC 25923)), the “MIC (MIC^a)” value is >100 µg/mL.
`C[C@H](CCCN(C)Cc1ccccc1)[C@H]1CC[C@H]2[C@@H]3[C@H](OCCNC(=N)N)C[C@@H]4C[C@H](OCCNC(=N)N)CC[C@]4(C)[C@H]3C[C@H](OCCNC(=N)N)[C@]12C` [Compound 4]: the “MIC: concentration required to lower the MIC of novobiocin from >500 μg/mL to 1 μg/mL” value in the data set on E. coli (ATCC 10798) [13] was found to be 5 µg/mL; in [15], 6 µg/mL. Also, the “MBC (with novobiocin)” value with E. coli (ATCC 10798) [13] (novobiocin sensitization) amounted to 10 µg/mL. In the data set with E. coli (ATCC 10798) [14], the “MIC: concentration required to lower the MIC of erythromycin from 70 μg/mL to 1 μg/mL” value was determined as 1.5 µg/mL. The “MBC (with erythromycin)” value worked out at 10 µg/mL in the data set on E. coli (ATCC 10798) [14] (erythromycin sensitization); 5 µg/mL in the data set on E. coli (ATCC 25922) [3] (Table 5, E. coli (ATCC 25922), erythromycin sensitization); 40 µg/mL in [11] (Table 7, P. aureginosa (ATCC 27853), erythromycin sensitization). The “MIC: concentration required to lower the MIC of erythromycin from 60 μg/mL to 1 μg/mL” value in the data set with E. coli (ATCC 25922) [3] (Table 5, E. coli (ATCC 25922)) amounted to 1 µg/mL. For the same compound, the MBC against E. coli (ATCC 25922) [6] (Table 4, E. coli (ATCC 25922)) was 9 µg/mL (≈ 12 µM); in [7] (setting [19]) it was 40 µg/mL (≈ 53.1 µM); with E. coli (ATCC 10798) [9] (Table 1, E. coli (ATCC 10798)) it was 10 µg/mL (≈ 13.3 µM). Besides, the MIC against E. coli (ATCC 25922) [6] (Table 4, E. coli (ATCC 25922)) is 6 µg/mL (≈ 7.97 µM); in data set [7] (setting [19]), 15 µg/mL (≈ 19.9 µM); against E. coli (ATCC 10798) [9] (Table 1, E. coli (ATCC 10798)), 5 µg/mL (≈ 6.64 µM). Moreover, the “MIC: concentration required to lower the MIC of erythromycin from 240 μg/mL to 5 μg/mL” value in data set [11] (Table 7, P. aureginosa (ATCC 27853)) came out at 5 µg/mL.
